Test results from patent publication US20220184091A1, “Methods of Treating Cancer with Chk1 Inhibitors” (Sierra Oncology, Inc., priority 2019, published 2022).

Tests used:
[1] = test system: PD-L1; test: Flow cytometry of surface PD-L1 in SCLC cell lines; type: cell-based; conditions: all SCLC cell lines tested; 1 μM for 72 hours
Description: Data presented as mean±SD and p values by t-test ***p<0.001.
Single-cell suspensions were prepared and stained according to standard protocols for flow cytometry with antibodies. For intracellular staining, cells were fixed and permeabilized with BD Cytofix/Cytoperm (BD Biosciences). The data were acquired on a Fortessa or Calibur platform (BD Biosciences) and analyzed with FlowJo software (version 7.6; Tree Star). For analyzing the abundance and the function of CD4+ or CD8+ TILs, single-cell suspensions were prepared from tumors and spleen and stained; the staining of spleen cells was used as the reference of lymphocyte gating, then CD3+ cells were gated, and then CD4+ or CD8+ population was analyzed.

[2] = test system: H69; test: Micronuclei assay, H69; type: cell-based, human; conditions: 1 μM, 24 hours or 48 hours
Description: H69 cells were cultured as discussed earlier and treated with or without SRA737 (1 μM). Cytochalasin B was added at 20th hour to each culture to give a final concentration of 3 μg/ml and the culture was incubated at 37° C. for up to 24 hrs. After 24 hrs incubation, the cells were centrifuged at 1000 rpm for 5 min. The supernatant was removed and the pellet was treated with weak hypotonic solution (0.075 M KCl/0.9% Saline, 1:9) and incubated at 37° C. for 5 min. After this, the cells were centrifuged and the pellets were fixed in fresh fixative (methanol:acetic acid, 3:1). Cells were dropped onto glass slides were prepared and stained with ProLong® Gold Antifade Mountant with DAPI. In the case of EMT-6 cells, micronuclei formation assays were performed at Phenovista Biosciences, San Diego. The cells were treated with either 1 μM or 5 μM SRA737 for 24h followed by mixing with 4% PFA for 20 minutes at RT directly in the culture wells, washing with PBS and staining with Hoechst (1:1000). The plates were imaged at 40× using the Thermo Fisher Scientific CellInsight CX7 imaging system and the micronuclei algorithm was adjusted to score all nuclei that are <55% of the size of the main nucleus. A total of 25 fields per well were imaged and the data was averaged across 8 replicates.
SRA737 was also evaluated for induced cytogenetic stress using a micronuclei (MN) assay.

[3] = Excretion of SRA737 in rats; type: in vivo; conditions: rat; over 24 hours
Description: The excretion of SRA737 has been studied in mice and rats administered SRA737 at either 5 mg/kg IV or 10 mg/kg orally. Urine and feces were collected for a 24-hour period after dosing. In mice, renal excretion of intact SRA737 was consistently low (less than 10% of dose) after both oral and IV administration. Following IV administration of SRA737, less than 8% of the dose was recovered as intact drug in the feces while after oral administration this figure was less than 3%. Excretion of intact SRA737 was lower in the rat than in the mouse with <1% of dose excreted renally over 24 hours and less than 1.5% of dose excreted into the feces over 24 hours.

[4] = test system: SCLC cell lines; test: CellTiter-Glo cell viability assay, SCLC cell line panel; type: cell-based, human and murine; conditions: 96 h
Description: SCLC cell lines were incubated with dimethyl sulfoxide (vehicle control), SRA737 or Gemcitabine for 96 hours at nine distinct concentrations, with the maximum dose being 10 μM. A CellTiter-Glo luminescent cell viability assay (Promega) was performed after 96 hours of treatment as per the manufacturer's specifications. IC50 values were estimated using Drexplorer, as previously described (Tong P, Coombes K R, Johnson F M, Byers L A, Diao L, Liu D D, Lee J J, Heymach J V, Wang J. drexplorer: A tool to explore dose-response relationships and drug-drug interactions. Bioinformatics. 2015 May 15; 31(10):1692-4.)
To investigate the in vitro activity of SRA737, a panel of 51 SCLC cell lines, including one murine derived model, and a panel of NSCLC, pancreatic, colon and bladder cancer cell lines were screened.

[5] = test system: IFNβ, CXCL10 and CCL5; test: qPCR of IFNβ, CXCL10 and CCL5 mRNA in SCLC cell lines; type: cell-based; conditions: 24 and 72 hours
Description: “Con” indicates control. Data presented as mean±SD and p values by t-test ***p<0.001.
(§1) Real-time PCR was done using SYBR Select Master Mix (Life Technologies, cat #4472908) according to the manufacturer's protocol. Primers were purchased from Sigma Aldrich, Inc. Triplicate PCR reactions were run on ABI (7500 Fast Real Time PCR System). The comparative Ct method using the average 2ΔΔCT value for each set of triplicates was used, and the average of the biological replicates was calculated. Negative controls were included for every primer set, and GAPDH was used as the […].

[6] = test system: SNU-C1; test: Cell viability, colon cancer line SNU-C1; type: cell-based; conditions: Homo sapiens
[7] = test system: CXCL10 and CCL5; test: qPCR of CXCL10 and CCL5 in MBT-2 tumors; type: in vivo, mouse
Excerpt: FIGS. 23A-D show the qPCR measurement of CXCL10 and CCL5 mRNA expression in MBT-2 (FIG. 23A and FIG. 23B) and MC38 (FIG. 23C and FIG. 23D) tumors resected after 7 or 14 days of treatment with SRA737 5/7 days. Data presented as mean±SD and p values by t-test * p<0.05, **p<0.01, ***p<0.001.
as §1
The flank of immunocompetent mice was then treated with SRA737 monotherapy for 5-days-on/2-days-off for either one or two cycles and the expression of CCL5 and CXCL10 in extracted tumors were analyzed. […] The previously used dosing regimen of 5-days-on/2-days-off was modified to a schedule of 7-days-on/7-days-off for SRA737 treatment with or without co-treatment with anti-PD1 (Days 3, 7 and 11) based on the results of induction of chemokines secretion after 7 days.

[8] = test system: MC38; test: MC38 colon flank tumor growth in immunocompetent mice; type: in vivo, mouse
Description: Tumors were evaluated twice weekly for the duration of the study. Tumor volumes were measured on all mice three times per week and calculated (width^2×length×0.4) using manual calipers. Once the average tumor size was in the range of 120-150 mm^3, mice were randomized into dosing groups using stratified sampling by assigning three animals per group for short-term reverse-phase protein array analysis and long-term treatment. Dosing schedules and duration varied depending on the study. Mice were weighed three times per week for the duration of the study, and a decrease in body weight >15% was considered indicative of a toxic dose. The Student t-test was used to determine statistical significance between compound- and vehicle-treated groups.
Tumors cells were implanted into the flank of immunocompetent mice. Once the volumes of the tumor reached 150-200 mm^3, the mice were randomized and treated with either monotherapy of SRA737 at 100 mg/kg for 5-days-on/2-days-off p.o., anti-PD1 BIW at 10 mg/kg i.p. or the combination thereof.

Structure (SMILES): N#Cc1cnc(Nc2cc(NCC3CNCCO3)c(C(F)(F)F)cn2)cn1 (stereo not shown) [SRA737, 5-[[4-[[morpholin-2-yl]methylamino]-5-(trifluoromethyl)-2-pyridyl]amino]pyrazine-2-carbonitrile]
- cell surface PD-L1 expression [1]: significantly increased
- micronuclei formation [2]: led to micronuclei formation
- dose excreted into the feces [3]: less than 1.5 % of dose
- dose excreted renally [3]: < 1 % of dose
- IC50 ([4]; SCLC cell lines classified resistant (n=35)): > 5 µM
- IC50 ([4]; SCLC cell lines classified sensitive (n=15)): < 5 µM
- IFNβ, CXCL10 and CCL5 (targets of IRF3) [5]: activated
- IC50 [6]: 1.3 µM
- CCL5 levels ([7]; after 7 days, p<0.01): significantly induced
- CCL5 levels ([7]; after 14 days): no significant difference
- CXCL10 expression ([7]; after both 7 days and 14 days, p<0.05): significant induction
- TGI ([8]; SRA737 100 mg/kg 5-days-on/2-days-off p.o., anti-PD1 BIW 10 mg/kg i.p.): 48%
- tumor growth inhibition ([8]; altered regimen SRA737 7-days-on/7-days-off, anti-PD-1 Days 3, 7 and 11): 61%
